Measured values from paper PMC10711620 (Frontiers in Pharmacology, 2023).
Like-named read-outs stand apart in the source and are kept apart here.

What was measured:
blood platelets [1] = assay: ADP-induced blood platelet aggregation in platelet-rich plasma; format: cell-based; conditions: Homo sapiens; for inhibition at 50 µg/mL: 50 μg/mL, ADP as agonist
Method: (§1) The blood samples under examination contained a normal range of blood platelets, ranging from 2.15 × 10^5 to 3.41 × 10^5 cells/μl. Platelet-rich plasma (PRP) was prepared by differentially centrifuging whole blood according to the method described earlier ([Kolodziejczyk-Czepas et al., 2021]). Subsequently, freshly obtained PRP samples (495 μL) were pre-incubated for 15 min at 37°C with the tested analytes (5 μL). These mixtures were then transferred into Chrono-Log 490 aggregometer cuvettes (Havertown, United States). Platelet aggregation measurements were conducted after stimulating the samples with either ADP (a final concentration of 10 μM) or collagen (a final concentration of 2 μg/mL), following the manufacturer’s instructions.

human plasma [2] = assay: Thrombin time (TT) in blood plasma; format: biochemical; conditions: mean ± SE, n = 12
Method: (§2) When determining the hemostatic parameters, stock solutions of the P. spinosa flower extracts (10 mg/mL) were prepared in 30% DMSO. DMSO concentrations in working solutions of the tested extracts (0.1, 0.5 and 5 mg/mL) were 15%. The studies mixed 5 µL of the extracts with 495 µL of blood plasma or thrombin solution. Control samples were untreated with the extracts; however, they contained a vehicle for the plant preparations, i.e., DMSO. The effect of DMSO on the investigated parameters was excluded in preliminary tests. All experiments used argatroban, a reference anticoagulant drug, as a positive control.
(§3) Thrombin (TT), prothrombin (PT) and the activated partial thromboplastin time (APTT) were measured in blood plasma using a Kselmed K-3002 Optic coagulometer (Kselmed, Grudziadz, Poland) and reagents purchased from Diagon Kft. (Budapest, Hungary), according to the laboratory protocols delivered by the manufacturer. Before the assays, the blood plasma samples were pre-incubated with the examined extracts at the final 1–50 μg/mL concentration for 15 min at 37°C. Control samples were prepared using blood plasma untreated with the extracts.

human plasma [3] = assay: Activated partial thromboplastin time (APTT) in blood plasma; format: biochemical; conditions: mean ± SE, n = 12
Method: as §2
as §3, with “Before the assays, the blood plasma samples were pre-incubated with the examined extracts at the final 1–50 μg/mL concentration for 15 min at 37°C.” left out

human plasma [4] = assay: Prothrombin time (PT) in blood plasma; format: biochemical; conditions: mean ± SE, n = 12
Method: When determining the hemostatic parameters, stock solutions of the P. spinosa flower extracts (10 mg/mL) were prepared in 30% DMSO. […] The studies mixed 5 µL of the extracts with 495 µL of blood plasma or thrombin solution. Control samples were untreated with the extracts; however, they contained a vehicle for the plant preparations, i.e., DMSO.
(Budapest, Hungary), according to the laboratory protocols delivered by the manufacturer. […] Control samples were prepared using blood plasma untreated with the extracts.

thrombin [5] = target: T1, thrombin (Bos taurus, UniProt P00735); parameters: method as in Liu et al. (2010); conditions: ref Liu et al. (2010); read-out: IC50, thrombin inhibition in optimized TT assay; cited from earlier work
T1 construct: comprises two polypeptide chains: the light chain, formed by 36 amino acids, and the heavy chain, which has 259 amino acids; purchased Biomed (Lublin, Poland)

thrombin [6] = tested on: thrombin; parameters: method as in Wei et al. (2019); conditions: ref Wei et al. (2019); read-out: IC50, inhibition of proteolytic activity of thrombin; cited from earlier work
blood platelets [7] = assay: Collagen-induced blood platelet aggregation in platelet-rich plasma; format: cell-based; conditions: Homo sapiens, 5 μg/mL
Method: as §1

thrombin [8] = target: T1, thrombin; assay: Amidolytic activity of thrombin, chromogenic substrate S-2238; format: biochemical; conditions: read-out: IC50, thrombin-inhibitory efficiency in the amidolytic tests (converted)
Method: When determining the hemostatic parameters, stock solutions of the P. spinosa flower extracts (10 mg/mL) were prepared in 30% DMSO. DMSO concentrations in working solutions of the tested extracts (0.1, 0.5 and 5 mg/mL) were 15%. The studies mixed 5 µL of the extracts with 495 µL of blood plasma or thrombin solution. Control samples were untreated with the extracts; however, they contained a vehicle for the plant preparations, i.e., DMSO.
The thrombin enzyme, purchased from Biomed (Lublin, Poland), was diluted with 0.05 M Tris-buffered saline (TBS), pH 7.4, to the concentration of 0.75 U/mL, and pre-incubated with the examined extracts at the final concentration of 1–50 μg/mL for 10 min, at 37°C. In control samples, 20% DMSO instead of the extracts was used. The measurements were conducted using a kinetic protocol, with absorbance recorded at 415 nm, every 10 s, for 15 min. The reaction mixture comprised 280 µL of thrombin (pre-incubated with the extracts or control/untreated enzyme) and 40 µL of 3 mM chromogenic substrate Chromogenix S-2238 purchased from Instrumentation Laboratory (Bedford, MA, United States of America). Thrombin amidolytic activity was estimated using the BMG Labtech software based on the maximal velocity of the reaction (Vmax). The assays were performed using 96-well microplates and the BMG Labtech SpectroStar Nano spectrophotometer (BMG LABTECH, Offenburg, Germany).

human thrombin = target: T2, human thrombin (Homo sapiens, UniProt P00734); assay: Circular dichroism spectra of thrombin; conditions: thrombin 15 μg/mL, compounds from 1 μg/mL, 37°C
T2 construct: comprises two polypeptide chains: the light chain, formed by 36 amino acids, and the heavy chain, which has 259 amino acids; purchased Sigma-Aldrich (St. Louis, MO, United States)
Method: Each spectrum was the average of three repetitions. Human thrombin was used at a 15 μg/mL concentration in 10 mM phosphate buffer (pH = 7.4). In determining circular dichroism spectra, stock solutions of P. spinosa flower components (10 mg/mL) in 10% tetrahydrofuran were initially prepared. The final concentration of tetrahydrofuran in the sample was less than 0.05%. The selected extract components in phosphate buffer without thrombin at the concentrations used in the experiments were used as a baseline for thrombin/extract complexes spectra.

For `O=c1c(O[C@@H]2O[C@@H](CO)[C@H](O)[C@H]2O)c(-c2ccc(O)c(O)c2)oc2cc(O)cc(O)c12` [AV, Quercetin 3-O-α-L-arabinofuranoside], which inhibition at 50 µg/mL (blood platelets [1]) is on record?
Its inhibition at 50 µg/mL is no more than 15%.

Which results are given for `CC1CNc2c(cccc2S(=O)(=O)N[C@@H](CCCNC(=N)N)C(=O)N2CC[C@@H](C)C[C@@H]2C(=O)O)C1` (stereo partly shown) [Argatroban]?
Clothing times TT (human plasma [2]; 0.5 µg/mL): 974.60 ± 27.50 % of the control/untreated human plasma; Clothing times TT (human plasma [2]; 5 µg/mL): No clot; Clothing times TT (human plasma [2]; 10 µg/mL): No clot; Clothing times APTT (human plasma [3]; 0.5 µg/mL): 202.58 ± 2.32 % of the control/untreated human plasma; Clothing times APTT (human plasma [3]; 5 µg/mL): 423.72 ± 7.83 % of the control/untreated human plasma; Clothing times APTT (human plasma [3]; 10 µg/mL): No clot; Clothing times PT (human plasma [4]; 0.5 µg/mL): 134.01 ± 1.50 % of the control/untreated human plasma; Clothing times PT (human plasma [4]; 5 µg/mL): 562.65 ± 12.69 % of the control/untreated human plasma; Clothing times PT (human plasma [4]; 10 µg/mL): 821.54 ± 46.95 % of the control/untreated human plasma

Which IC50 (thrombin [5]) does the source give for `O=c1c(O[C@@H]2O[C@H](CO)[C@H](O)[C@H](O)[C@H]2O)c(-c2ccc(O)c(O)c2)oc2cc(O)cc(O)c12` [HY, Quercetin 3-O-β-D-galactopyranoside] here?
The IC50 was greater than 1000 µM.

With `O=c1c(O[C@@H]2O[C@H](CO)[C@@H](O)[C@H](O)[C@H]2O)c(-c2ccc(O)c(O)c2)oc2cc(O)cc(O)c12` [IQ, Quercetin 3-O-β-D-glucopyranoside] as the compound, how does the IC50 (thrombin [6]) read?
The IC50 was 28.8 µM.

For `COc1ccc2c(c1)c(CC(=O)O)c(C)n2C(=O)c1ccc(Cl)cc1` [Indomethacin], which inhibition at 5 µg/mL (blood platelets [7]) is on record?
The inhibition at 5 µg/mL was roughly 86%.

What about the inhibition at 5 µg/mL (blood platelets [1]; 5 μg/mL, ADP) of the same compound?
Its inhibition at 5 µg/mL is roughly 23%.

With `O=c1c(O[C@@H]2O[C@@H](CO)[C@H](O)[C@H]2O)c(-c2ccc(O)cc2)oc2cc(O)cc(O)c12` [JU, Kaempferol 3-O-α-L-arabinofuranoside] as the compound, how does the inhibition at 50 µg/mL (blood platelets [1]) read?
Its inhibition at 50 µg/mL is no more than 15%.

Which results are given for `O=c1c(O)c(-c2ccc(O)cc2)oc2cc(O)cc(O)c12` [KA, Kaempferol]?
IC50 (thrombin [8]): 283 µM; IC50 (thrombin [5]): 109 µM

What does the source list for `Oc1cc(O)c2c(c1)O[C@@]1(c3ccc(O)c(O)c3)Oc3cc(O)c4c(c3[C@@H]2[C@H]1O)O[C@H](c1ccc(O)c(O)c1)[C@H](O)C4` [PA2, proanthocyanidin A2]?
IC50 (thrombin [8]): 90.8 µM; Change of thrombin CD spectrum / secondary structure (human thrombin): most apparent modification of the thrombin α-helix structure

For `C[C@@H]1O[C@@H](OC[C@H]2O[C@@H](Oc3c(-c4ccc(O)c(O)c4)oc4cc(O)cc(O)c4c3=O)[C@H](O)[C@@H](O)[C@@H]2O)[C@H](O)[C@H](O)[C@H]1O` [RT, Quercetin 3-O-(6″-O-α-L-rhamnopyranosyl)-β-D-glucopyranoside], which IC50 (thrombin [6]) is on record?
The IC50 was 34.1 µM.

And the IC50 (thrombin [5])?
The IC50 was greater than 1000 µM.

For `C[C@@H]1O[C@@H](Oc2c(-c3ccc(O)cc3)oc3cc(O)cc(O)c3c2=O)[C@H](OC(=O)/C=C/c2ccc(O)cc2)[C@H](O)[C@H]1OC(=O)/C=C/c1ccc(O)cc1` [kaempferol-3-O-(2″,4″-di-E-p-coumaroyl)-rhamnoside], which IC50 (thrombin [5]) is on record?
Its IC50 is 52 µM.

With `O=c1c(O[C@@H]2O[C@H](CO)[C@@H](O)[C@H](O)[C@H]2O)c(-c2ccc(O)cc2)oc2cc(O)cc(O)c12` [kaempferol-3-O-glucoside] as the compound, how does the IC50 (thrombin [5]) read?
The IC50 was greater than 1000 µM.

For `O=C(/C=C/c1ccc(O)cc1)O[C@H]1[C@H](Oc2c(-c3ccc(O)cc3)oc3cc(O)cc(O)c3c2=O)O[C@@H](CO)[C@@H]1O` [p-cJU, Kaempferol 3-O-(2″-O-E-p-coumaroyl)-α-L-arabinofuranoside], which IC50 (thrombin [8]) is on record?
Its IC50 is 67.8 µM.

With “kaempferol-3-O-(2″-di-E-p-coumaroyl)-rhamnoside” as the compound, how does the IC50 (thrombin [5]) read?
The IC50 was 83 µM.
